In patent US10204708B2, “System and method for deriving parameters for homeostatic feedback control of an individual” (Agency for Science, Technology and Research, priority 2012, dated 2019) one finds clinical outcome, TSH and FT4 data, which are given here for two compounds.

What all share (format): in vivo, human
The nature of assay [1]: clinical course of hypothyroid Graves' disease patient on L-thyroxin. Particulars: Example 3 patient, 75 mcg L-T4 daily. The source says: They were thus started on L-thyroxin from day 456 at 25 mcg daily, and escalated to 50 mcg daily from day 715.
Assay [2] is described as follows: thyroid function test, thyroid-stimulating hormone [TSH] level of patient under treatment. The source says: (§1) The method 10 is particularly suited to derive the hypothalamus pituitary (HP) characteristic of the individual. The HP characteristic of, the individual relates the level of thyroid-stimulating hormone [TSH] level in milliunits per liter (mU/L) and the corresponding free thyroxin [FT4] level in picomoles per liter (pmol/L) in the individual. In the following description, homeostatic measurements would be understood to refer to measurements of the level of [TSH] and corresponding [FT4] in an individual.
(§2) Each homeostatic measurement comprises a value of a [TSH] reading and a corresponding [FT4] reading. To determine the S and φ parameters for the individual, at least two well distinguishable homeostatic, measurements (i.e. ([FT4]1, [TSH]1) and ([FT4]2, [TSH]2)) from the individual are obtained with a predetermined time gap in between each measurement. The measurements are performed on samples taken near the same time of the day by the same analytical measurement method and ideally applied by one and the same person whenever feasible to minimise errors that can compromise the accuracy of the model estimates.
(§3) Preferably, the individual measurements are performed in a fasting condition and separated by 6 weeks while under medical treatment for a hypothyroidism or hyperthyroidism state with the replacement hormone for [T4] leading to a state of clinical euthyroidism.
(§4) Any method known for measuring homeostatic parameters would be suitable, for example, various types of chromatography, immunochemistry or other methods known to accurately measure the amount of a homeostatic expression product, as long as the same measurement method is applied by one and the same person.

Assay [3] is described as follows: thyroid function test, free thyroxin [FT4] level of patient under treatment.
Source text: as §1, §2, §3, §4

The mark [4] stands for this setting: Example 1 patient, day 210, Rx LT4 50 (mcg daily), after radioiodine-131 ablation.
Setting [5] is: Example 1 patient, day 269, Rx LT4 50 (mcg daily).
Setting [6] is: Example 6 patient, 1 Oct. 2007, LT4 100.
Where [7] appears, read: Example 6 patient, 2 May 1997, LT4 25.
Setting [8] is: Example 6 patient, 3 May 2005, LT4 75.
Where [9] appears, read: Example 6 patient, 5 Oct. 2005, LT4 100.
Setting [10] is: Example 6 patient, 6 May 2011, LT4 100.
Setting [11] is: Example 6 patient, 10 Dec. 2010, LT4 100.
Setting [12] is: Example 6 patient, 12 Feb. 2007, LT4 100.
Setting [13] is: Example 6 patient, 14 May 2007, LT4 100.
Setting [14] is: Example 6 patient, 16 Aug. 1999, LT4 50.
Setting [15] is: Example 6 patient, 16 Mar. 2012, LT4 100.
Setting [16] is: Example 6 patient, 17 Aug. 1998, LT4 50.
Where [17] appears, read: Example 6 patient, 19 Oct. 2006, LT4 100.
[18] abbreviates: Example 6 patient, 21 Jun. 2006, LT4 100.
[19] abbreviates: Example 6 patient, 23 Jan. 2006, LT4 100.
The mark [20] stands for this setting: Example 6 patient, 24 Apr. 2002, LT4 50.
Setting [21] is: Example 6 patient, 26 Oct. 1999, LT4 50.
The mark [22] stands for this setting: Example 6 patient, 28 Jul. 2008, LT4 100.
The mark [23] stands for this setting: Example 1 patient, day 0, Rx CMZ 20.
The mark [24] stands for this setting: Example 1 patient, day 53, Rx CMZ 10.
[25] abbreviates: Example 1 patient, day 86, Rx CMZ 30.
The mark [26] stands for this setting: Example 1 patient, day 125, Rx CMZ 10.

Turning to `N[C@@H](Cc1cc(I)c(Oc2cc(I)c(O)c(I)c2)c(I)c1)C(=O)O` [LT4, levothyroxin], in assay [1], the clinical outcome is “euthyroidism and resolution of all their hypothyroid symptoms”. Further, the TSH in assay [2] (setting [4]) is 9.05 mU/L; in assay [2] (setting [5]), 0.12 mU/L; in assay [2] (setting [6]), 4.34 mU/L; in assay [2] (setting [7]) it was 8.64 mU/L; in assay [2] (setting [8]), 6.67 mU/L; in assay [2] (setting [9]), 1.10 mU/L. For the same compound, the TSH in assay [2] (setting [10]) is recorded as 0.99 mU/L; in assay [2] (setting [11]) it was 0.41 mU/L; in assay [2] (setting [12]) it was 2.65 mU/L; in assay [2] (setting [13]), 1.72 mU/L; in assay [2] (setting [14]), 4.96 mU/L; in assay [2] (setting [15]) it was 2.20 mU/L. Besides, the TSH is reported as 8.71 mU/L in assay [2] (setting [16]); 2.43 mU/L in assay [2] (setting [17]); 1.48 mU/L in assay [2] (setting [18]); 2.18 mU/L in assay [2] (setting [19]); 2.32 mU/L in assay [2] (setting [20]); 3.03 mU/L in assay [2] (setting [21]). For the same compound, the TSH in assay [2] (setting [22]) is recorded as 3.12 mU/L. Besides, the FT4 in assay [3] (setting [4]) is 5 pmol/L; in assay [3] (setting [5]), 10 pmol/L; in assay [3] (Example 4 patient, radiation-induced thyroid failure, LT4 25 mcg once daily), “about 10 pmol/L”; in assay [3] (setting [6]), 11 pmol/L; in assay [3] (setting [7]), 11.5 pmol/L; in assay [3] (setting [8]), 13 pmol/L. Further, the FT4 worked out at 16 pmol/L in assay [3] (setting [9]); 17 pmol/L in assay [3] (setting [10]); 18 pmol/L in assay [3] (setting [11]); 15 pmol/L in assay [3] (setting [12]); 14 pmol/L in assay [3] (setting [13]); 12 pmol/L in assay [3] (setting [14]). The FT4 is on record as 15 pmol/L in assay [3] (setting [15]); 10.6 pmol/L in assay [3] (setting [16]); 12 pmol/L in assay [3] (setting [17]); 13 pmol/L in assay [3] (setting [18]); 14 pmol/L in assay [3] (setting [19]); 13 pmol/L in assay [3] (setting [20]). For the same compound, the FT4 was 14 pmol/L in assay [3] (setting [21]) and 13 pmol/L in assay [3] (setting [22]).

As to `CCOC(=O)n1ccn(C)c1=S` [CMZ, carbimazole], the TSH in assay [2] (setting [23]) is given as less than 0.01 mU/L; in assay [2] (setting [24]), less than 0.01 mU/L; in assay [2] (setting [25]), 0.005 mU/L; in assay [2] (setting [26]), 0.02 mU/L. Besides, the FT4 in assay [3] (setting [23]) came to 53.3 pmol/L; in assay [3] (setting [24]) it was 12.5 pmol/L; in assay [3] (setting [25]), 31.3 pmol/L; in assay [3] (setting [26]), 11 pmol/L.
